Laboratory results taken from patent publication US5693617A, “Inhibitors of the 26s proteolytic complex and the 20s proteasome contained therein” (ProScript, Inc., priority 1995, dated 1997).
“Also recorded” adds a separate entry of the source. Non-standard residues stand in square brackets, D forms with d. Residues, ends and D or L forms follow the SMILES beside them. Nle = CCCC[C@H](N)C(=O)O

Legend:
20S proteasome = biological target: T1, 20S proteasome (Oryctolagus cuniculus, UniProt G1T4Q9); experiment: Inhibition of the 20S proteasome peptidase activity (kinetic experiments); format: biochemical, Rabbit
T1 sequence (G1T4Q9 60-263): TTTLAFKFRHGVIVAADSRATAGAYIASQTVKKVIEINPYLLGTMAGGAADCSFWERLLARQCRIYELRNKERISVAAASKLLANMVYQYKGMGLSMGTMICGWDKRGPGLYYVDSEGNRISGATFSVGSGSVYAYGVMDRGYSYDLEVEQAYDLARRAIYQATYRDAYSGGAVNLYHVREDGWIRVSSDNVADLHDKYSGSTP
T1 sequence (G1SU71 1-241 partner): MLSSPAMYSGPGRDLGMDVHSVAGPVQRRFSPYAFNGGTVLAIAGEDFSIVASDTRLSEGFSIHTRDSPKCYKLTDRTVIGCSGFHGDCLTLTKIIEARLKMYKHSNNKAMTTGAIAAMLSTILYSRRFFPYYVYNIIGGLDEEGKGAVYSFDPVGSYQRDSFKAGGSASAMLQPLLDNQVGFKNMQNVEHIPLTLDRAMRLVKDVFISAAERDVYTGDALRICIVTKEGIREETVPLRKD
Description: (§1) Tables I-III summarize results from kinetic experiments that measured the inhibition of the 20S and 26S proteasomes, as well as cathepsin B and calpain, enzymes that may also be involved in muscle protein turnover. In these tables, Ki values are reported, which are dissociation constants for the equilibrium that is established when enzyme and inhibitor interact to form the enzyme:inhibitor complex.
(§2) The substances and assay conditions are briefly summarized in the footnotes to Table I. MG 101 and MG 102, also known as Calpain Inhibitor I and II, were purchased from Calbiochem as catalogue products.
(^a) Rabbit muscle. SDSactivated. Substrate: SucLLVYAMC.

human cell line RAJI-K^b = experiment: MHC-I antigen presentation in human cells; format: cell-based; settings: FIG. 8
Procedure: (§3) Antigen-presenting cells (APCs)--mouse B lymphoblastoid cell line (LB27.4)--were washed free of serum and loaded with an ovalbumin peptide (residues 257-263), which corresponds to the sequence these cells naturally generate and present. The APCs were incubated 1 hr at 37° C., electroporated with antigen, incubated 10 min on ice and washed. The antigen loaded cells were incubated 2 hrs at 37° C., fixed with paraformaldehyde, and washed. MG 101 at the concentrations indicated in FIG. 5 was present in all steps prior to fixation. APCs were assayed for antigen presentation as described in Rock et al., J. Immunol. 145:804-811 (1990) and Carbone et al., J. Exp Med. 171:377-387 (1990). […] In the left panel, APCs were treated with (open circles) or without (closed circles) MG 101 and electroporated with ovalbumin. In the right panel, APCs were treated with (open circles) or without (closed circles) MG 101 and electroporated with ovalbumin peptide. Example 7 was repeated except that the human cell line RAJI-K^b was used.

[1] = tested on: mouse B lymphoblastoid cell line (LB27.4); experiment: MHC-I antigen presentation, intact cells (OVA loaded by hypotonic lysis of pinosomes); format: cell-based; settings: 50 μM MG 101 in media; FIG. 6
Procedure: as §3, with “peptide. Conditions were the same as in” for “peptide.”, “7,” for “7 was repeated”, “that (1) in one group of cells (referred to as MG 101 in media) MG 101 (50 μM) was omitted from” for “that”, “antigen load while in a parallel group (referred to as MG 101 in Ag load) MG 101 (50 μM)” for “human cell line RAJI-K^b”, “included in the antigen load; and (2) OVA was introduced into the cytoplasm by hypotonic lysis of pinosomes (3) instead of electroporation.” for “used.”

[2] = biological target: chymotrypsin-like activity of the proteasome; settings: Vinitsky et al. 1992; slow binding inhibitors; cited from earlier work
RMA cells = experiment: Class I MHC assembly in RMA cells; format: cell-based
Procedure: Class I MHC molecules are peptide-binding receptors composed of a heavy and a light chain. Peptide binding to these molecules is essential for the stable association of the heavy and light chains. […] To test the effect of MG 101 on class I assembly, RMA cells were incubated with and without MG 101 (100 μM) for 1 hr at 37° C., electroporated with and without MG 101 (100 μM) as described in Example 7, and incubated with and without MG 101 (100 μM) for 3 hrs at 37° C. Over the last 30 min of incubation the cells were pulse labeled with ^35 S-methionine and were then washed and detergent lysates were prepared. Lysates were divided and class I binding peptides were added to one group. Class I molecules were immunoprecipitated with a mAb, Y3 (Townsend et al., Cell 62:285-295 (1990)), that only reacts with assembled class I heterodimers and analyzed as previously described ([…] et al., Nature 363:552-554 (1993)).

26S proteasome = biological target: T2, 26S proteasome (Oryctolagus cuniculus, UniProt G1T4Q9); experiment: Inhibition of the 26S proteasome (kinetic experiments); format: biochemical, Rabbit; settings: summary of enzyme inhibition; read-out: Ki, 26S proteasome complex activity
T2 sequence (G1T4Q9 60-263): T1 sequence (G1T4Q9 60-263)
T2 sequence (G1SU71 1-241 partner): T1 sequence (G1SU71 1-241 partner)
Description: as §1, §2
(^b) Rabbit muscle. Substrate: […]. [Mg:ATP] = 2 mM.

rat soleus muscle = experiment: Denervation-induced protein degradation in incubated rat soleus muscle; settings: 100 μM MG 101; FIG. 4
Procedure: One leg of each of seven rats was denervated by section of the sciatic nerve 3 days prior to sacrifice. […] After incubation, the tissue was homogenized, and ^3 -phenylalanine incorporation into protein and free tyrosine of the medium was measured.

rat diaphragm muscle = experiment: T3 induced protein degradation in incubated rat diaphragm; settings: 40 μM MG 101; FIG. 3
Procedure: T3 was administered to hypophysectomized rats for 7 days. […] After incubation, the tissue was homogenized, and ^3 -phenylalanine incorporation into protein and free tyrosine of the medium was measured.

## CCCC[C@@H](C=O)NC(=O)[C@H](CC(C)C)NC(=O)[C@H](CC(C)C)NC(C)=O [MG 101, Ac-Leu-Leu-Nle-H] (Ac-Leu-Leu-[Nle]-aldehyde)
20S proteasome; FIG. 1
  Mode of inhibition of peptidase activity of muscle 20S proteasome: competitive inhibitor
20S proteasome; both latent and active forms of 20S proteasome, read-out: Ki, peptidase activities of 20S proteasome
  Ki: 0.14 to 7 µM
Human cell line RAJI-K^b
  Presentation of antigen from ovalbumin in human cells: prevents antigen presentation in human cells; also recorded: inhibits presentation of antigen from ovalbumin in human cells
[1]
  Antigen presentation from ovalbumin in intact cells: can enter into living cells and inhibit antigen processing; also recorded: inhibits presentation of antigen from ovalbumin
[2]
  Ki: 5.7 µM
RMA cells; 100 μM MG 101, FIG. 7
  Assembly of class I heterodimers: markedly reduced
RMA cells; 100 μM MG 101, FIG. 7 lane 4
  Class I complex formation from introduced antigenic peptide: fails to inhibit complex formation from introduced antigenic peptide
RMA cells; FIG. 7
  Appearance of MHC-I molecules on the cell surface: specifically blocks the movement of functional MHC-I complexes to the cell surface; also recorded: blocks the appearance of MHC-I molecules on the cell surface
RMA cells; control experiments
  Level of the individual class I subunits: does not affect the level of the individual subunits
26S proteasome
  Ki: 2.9 µM
Rat soleus muscle
  Protein degradation induced by denervation in incubated rat soleus muscle: inhibits the accelerated proteolysis in muscle; also recorded: inhibition of protein degradation
Rat diaphragm muscle
  Protein degradation induced by T3 in incubated rat diaphragm: inhibits the accelerated proteolysis in muscle; also recorded: inhibition of protein degradation
